Results: US6887862B2, “Method for improving treatment selectivity and efficacy using intravascular photodynamic therapy” (Miravant Systems, Inc., priority 2001, dated 2005)
“Also recorded” adds a separate entry of the source.

How the values were obtained:
[1] = test system: rat carotid artery; assay: Intravascular PDT treatment of rat carotid artery, histology (H&E) and clinical observation; assay type: in vivo; conditions: for Adverse symptoms in animals / PDT-induced damage in surrounding tissue (histology) / Acellularity within the media (H&E): blue light approximately 458 nm; for Acellularity in the medial wall / PDT effect / damage in surrounding tissue: balloon blood exclusion
Description: The central lumen of this catheter was designed to allow passage of an optical fiber having a diffuser at its distal end. The fiber was positioned such that the diffusing section was centered within the light delivery balloon, thereby providing intravascular light delivery with minimal absorption by blood. Excitation was typically provided by a laser source at the proximal end of the device, which was focused on the proximal end of the fiber-optic diffuser. Typical wavelengths used were 405 nm, 407 nm, 413 nm, 436 nm, 442 nm, 458 nm, 514 nm, 532 nm, and the general range of 570-610 nm.
The surgery was performed by doing a cutdown to allow access to the right femoral artery, followed by insertion of the light delivery catheter. The catheter was then passed up through the iliac and abdominal aorta, through the aortic arch and into the left carotid artery. Once in place, the balloon was inflated to approximately 1 atmosphere using a standard angioplasty inflation device. This caused the balloon to expand to the diameter of the artery, while still allowing the pressure to be kept low enough to prevent significant over-stretch of the artery.
Prior to this surgery, the rats were injected with a photosensitizer drug to allow uptake of the drug into the target tissues. […] Induction of acellularity is believed to inhibit intimal hyperplasia, the most common cause of restenosis in post-angioplasty patients.
FIG. 1 is a low magnification image of a tissue cross section taken from the throat of a rat that has received PDT therapy using intravascular red light. […] (A bare fiber diffuser was used here since complete blood elimination is not necessary at this wavelength due to the relatively high penetration of light through blood at this wavelength.) The animal was sacrificed 4 days after the PDT treatment, the throat section was harvested, embedded and stained using hematoxylin and eosin (H&E). […] A balloon was placed around the fiber light diffuser here since it is important to eliminate blood at these wavelengths due to the optical absorption of hemoglobin. […] The animal was sacrificed 5 days after the PDT treatment, the throat section was harvested, embedded and stained using hematoxylin and eosin (H&E). […] In fact, it is widely believed that viable smooth muscle cells in the media and adventia are the source of the proliferating cells that are responsible for restenosis.
In FIG. 9, the results are listed in the columns titled Max. Accell., listing the acellularity measured in the section for which the acellularity was highest and Sur. Tissue Damage, listing the degree of surrounding tissue damage. […] The desired objective was to achieve significant acellularity with minimal damage to surrounding tissue.

[2] = Optical absorption spectrum of MV6401; assay type: physicochemical; conditions: near 458 nm and 532 nm (FIG. 8)
[3] = Uptake of the drug within the target tissues by fluorescence microscopy and HPLC; assay type: in vivo; conditions: rat, systemic administration
Experimental: Prior to this surgery, the rats were injected with a photosensitizer drug to allow uptake of the drug into the target tissues. Uptake of the drug within the target tissues was confirmed by fluorescence microscopy and high pressure liquid chromatography (HPLC). […] Induction of acellularity is believed to inhibit intimal hyperplasia, the most common cause of restenosis in post-angioplasty patients. […] To our knowledge, such efficacy using intravascular light has never been achieved previously with PDT. […] This was notable since the target tissues appeared to contain a higher drug concentration and they were also located closest to the light source.

[4] = test system: coronary artery; assay: Intravascular PDT treatment of swine coronary artery, heart harvested after treatment; assay type: in vivo
[5] = rat carotid, approximately 4 hours after drug injection (FIG. 14)
[6] = rat carotid, intravascular light at wavelengths within the disclosed 390-610 nm range
[7] = intravascular red light, high PDT doses
[8] = rat carotid, approximately 2 hours after drug injection (FIG. 15)

## CC(=O)[O-].CC(=O)[O-].CCc1c(CC)c2cc3nc(cnc4cc(OCCOCCOCCOC)c(OCCOCCOCCOC)cc4ncc4nc(cc1[n-]2)C(CCCO)=C4C)C(C)=C3CCCO.O.[Lu+3] [LuTex, lutetium texaphyrin]
[1]; [5]
  Adverse symptoms in animals: no animals displayed adverse symptoms
  PDT-induced damage in surrounding tissue (histology): minimal evidence of PDT-induced damage in surrounding tissue
[1]; rat carotid, approximately 4 hours after drug injection, 3 days after PDT (FIG. 14)
  Acellularity within the media (H&E): nearly complete acellularity within the media
[1]; [6]
  Acellularity in the medial wall: acellularity was induced in the medial wall
  PDT effect / damage in surrounding tissue: largely sparing the surrounding tissue

## C=Cc1c(C)c2[n]3c1=CC1=NC(=Cc4c(C)c5c([n]4[In]3[Cl])C(=C3N=C(C=2)[C@@H](C)[C@@H]3CCC(=O)OC)CC5=O)C(CC)=C1C [MV6401]
[2]
  Absorption (molar extinction coefficient): > 1000 L cm^−1 M^−1
[1]; [6]
  Clinical evidence of adverse PDT treatment effect: no clinical evidence of an adverse PDT treatment effect
  Acellularity in the medial wall: acellularity was induced within the medial wall; also recorded: acellularity was induced in the medial wall
  PDT effect / damage in surrounding tissue: very minimal PDT effect in the surrounding tissue; also recorded: largely sparing the surrounding tissue
[1]; rat carotid, intravascular red/infrared light
  PDT treatment effect in the target tissue (histology): little or no PDT treatment effects in the target tissue
[1]; rat, 2 μmol/kg systemic, 458 nm, 100 J/cm^2, light 4 hours post drug (FIG. 3)
  Clinical symptoms: no adverse clinical symptoms
[1]; rat, 2 μmol/kg systemic, 458 nm, 100 J/cm^2, light 4 hours post drug (FIG. 4)
  Acellularity in the vessel wall: complete acellularity was induced in the vessel wall
[1]; rat, 2 μmol/kg systemic, 458 nm, 100 J/cm^2, light 4 hours post drug, balloon device, sacrificed 5 days after PDT (FIG. 3)
  Surrounding tissue damage (inflammation and necrosis, H&E): minimal PDT-induced inflammation and necrosis
[3]
  Localization / uptake of photosensitizer in target tissue versus surrounding tissue: more strongly localized in the target tissue; also recorded: taken up preferentially in the target vessel tissue
[4]; blue (458 nm) or green (532 nm) intravascular light, surrounding tissue damage of the order of FIG. 6 and 7
  Acellularity within the vessel media and adventia: complete acellularity can be achieved within the vessel media and adventia
[4]; intravascular blue light (458 nm) (FIG. 6)
  PDT-induced damage to myocardium / surrounding tissue: minimal damage to the myocardium
[4]; intravascular green light (532 nm) (FIG. 7)
  PDT-induced damage to myocardium / surrounding tissue: minimal damage to the myocardium
[4]; [7]
  Acellularity in media or adventia of the vessel: insignificant acellularity was induced in the media or adventia of the vessel
  Clinical reactions: severe adverse clinical reactions

## O=C([O-])c1c(Cl)c(Cl)c(Cl)c(Cl)c1-c1c2cc(I)c(=O)c(I)c-2oc2c(I)c([O-])c(I)cc12.[Na+].[Na+] [Rose Bengal]
[1]; [6]
  Acellularity in the medial wall: acellularity was induced in the medial wall
  PDT effect / damage in surrounding tissue: largely sparing the surrounding tissue

## benzoporphyrin derivative [BPD]
[1]; [8]
  Adverse symptoms in animals: no animals displayed adverse symptoms
  PDT-induced damage in surrounding tissue (histology): minimal evidence of PDT-induced damage in surrounding tissue
[1]; rat carotid, approximately 2 hours after drug injection, 3 days after PDT (FIG. 15)
  Acellularity within the media (H&E): nearly complete acellularity within the media
[1]; [6]
  Acellularity in the medial wall: acellularity was induced in the medial wall
  PDT effect / damage in surrounding tissue: largely sparing the surrounding tissue
